The values below come from PMC12120022, “Discovery and chemical optimisation of a potent, Bi-cyclic antimicrobial inhibitor of Escherichia coli PBP3” (Communications Biology, 2025).

Where a SMILES comes first, the peptide text is derived from it.

A short description of data set [1]: Mouse blood stability. The data set is classed as in vitro ADME, CD-1 mice. As to conditions: CD-1, mouse, whole blood (EDTA as anticoagulant), 37 °C, SAR peptides, read-out: Blood stability (t1/2) (converted). As for the experimental part: Stability assays were performed using freshly collected matrices from CD-1 mice, with anticoagulant as stated per dataset. Compound stocks in DMSO were tested at 5 μM final concentration (0.5% (v/v) DMSO). Compounds were incubated in blood or plasma at 37 °C for 24 h, with sampling at 0, 1, 2, 4, 6 and 24 h. Samples were prepared via protein precipitation using organic solvent containing internal standard, and analyzed by LC-MS/MS. Compound remaining was quantified based on the ratio of analyte to internal standard, and the half-life (t1/2) was calculated from a log linear plot of % remaining versus time.

In data set [2] the target is T1, EcPBP3 (Escherichia coli, UniProt P0AD68).
T1 construct: For assays, selections and SPR a construct with residues 60–588 which has the N-terminal domain, but not the transmembrane helix, was used; made in house
The data set can be described thus: Fluorescence polarisation competition assay with BOCILLIN-FL as tracer. The format is binding. As to conditions: competition format, NB, non-binder (100 μM top concentration); for IC50: read-out: IC50 (nM) by fluorescence polarisation with Bocillin FL as tracer, Geometric mean (Lower 95% CI of geo. Mean; Upper 95% CI of geo. Mean, n=number of values). As for the experimental part:
Binding of output peptides to EcPBP3 was evaluated using a fluorescence polarisation (FP) assay.
[…] 10 µL of protein (9.4 nM) was mixed with either 5 µL of peptide or 5 µL of buffer and then the assay was initiated by the addition of 10 µL of tracer (1 nM) (final volume 25 µL), in a black 384 low bind, low volume plate (Corning). The buffer was 10 mM HEPES (Sigma), 2% (v/v) glycerol (Sigma), 300 mM NaCl (Sigma), adjusted to pH 8. The plate was incubated for 1 h at 25 °C and then read in a PHERAstar FS (BMG) using with an “FP 485 520 520” optic module (excitation 485 nm, emission 520 nm). The gain was determined immediately prior to the read on a tracer-only well.
Dotmatics (Dotmatics) workflows performing the above calculations were used to process the data. Values quoted are the geometric means of at least 2 repeats.

Data set [3] deals with T1, EcPBP3. The experiment in a line: SPR binding assay on immobilised EcPBP3. As to conditions: 37 °C, kinetic fitting; NB = no binding at 2500 nM (Tables S-4, S-5) or 5000 nM (Table 1); read-out: Kd (nM) by SPR (geomean). In outline:
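EcPBP3 amine-coupled to CM5 chip (1500-2500 RU); compounds injected at 37 °C in 10 mM HEPES pH 8.0, 200 mM NaCl, 0.05% Tween-20, 2% DMSO, 50 μL min^–1, 150 s contact, 2400 s dissociation. Double-referenced sensorgrams kinetically fitted for Kd; geometric mean of ≥2 biological replicates.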

Data set [4] deals with E. coli GKCW102 (EcPore). As to conditions: caMHB; biological replicates or their range. The protocol: To evaluate the engagement of EcPBP3 by a bicyclic peptide in whole cells lacking the outer membrane permeability barrier, peptides were screened in ‘hyperporinated’ E. coli strains in which a constitutively open FhuA pore (FhuAΔC/Δ4L, lacking N-terminal cork domain and external loops) was chromosomally expressed under control of an arabinose-inducible promoter.
Minimal inhibition concentration (MIC) assays were performed in accordance with CLSI standards, using cation-adjusted Mueller Hinton broth (caMHB; Sigma Aldrich) unless otherwise specified. Induction of pore expression in hyperporinated strains E. coli GKCW101 and GKCW102 was performed by addition of 0.1% (w/v) L-arabinose to cultures at OD600 ~ 0.3, with caMHB as the culture medium.

T1 sequence (P0AD68 60-588): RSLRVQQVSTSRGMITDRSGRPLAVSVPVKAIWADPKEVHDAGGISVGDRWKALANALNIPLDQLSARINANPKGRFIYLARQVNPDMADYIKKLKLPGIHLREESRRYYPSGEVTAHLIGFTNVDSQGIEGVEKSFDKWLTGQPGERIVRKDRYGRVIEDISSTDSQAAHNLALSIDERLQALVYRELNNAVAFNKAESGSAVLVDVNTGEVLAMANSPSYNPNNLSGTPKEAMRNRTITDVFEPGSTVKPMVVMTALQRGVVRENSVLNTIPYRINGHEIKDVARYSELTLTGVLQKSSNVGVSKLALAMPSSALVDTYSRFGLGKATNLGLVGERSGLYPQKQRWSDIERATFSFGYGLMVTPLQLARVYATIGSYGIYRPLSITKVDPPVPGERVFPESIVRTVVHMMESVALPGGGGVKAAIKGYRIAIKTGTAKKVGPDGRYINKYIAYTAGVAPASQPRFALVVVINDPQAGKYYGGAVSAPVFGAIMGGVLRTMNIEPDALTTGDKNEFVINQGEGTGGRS

For `CC(C)[C@@H]1NC(=O)[C@H](Cc2c[nH]c3ccccc23)NC(=O)[C@@H]2CCCN2C(=O)[C@@H]2CSCCC(=O)N3CN(CN(C3)C(=O)CCSC[C@H](N)C(=O)N[C@@H](CO)C(=O)N[C@@H](Cc3ccccc3)C(=O)N3CCC[C@H]3C(=O)N[C@@H](CCCCNC(=N)N)C(=O)N2)C(=O)CCSC[C@@H](C(N)=O)NC(=O)CNC(=O)[C@H](CCC(=O)O)NC1=O` [Peptide 72, CSFP[HArg]CPWVEGC] (HELM PEPTIDE1{C.S.F.P.[N=C(N)NCCCC[C@H](N[*:1])C(=O)[*:2]].C.P.W.V.E.G.C.[am]}|CHEM1{[O=C(CC[*:1])N1CN(C(=O)CC[*:2])CN(C(=O)CC[*:3])C1]}$PEPTIDE1,CHEM1,1:R3-1:R1|PEPTIDE1,CHEM1,6:R3-1:R2|PEPTIDE1,CHEM1,12:R3-1:R3$$$V2.0), the half-life at 5 μM in data set [1] was 3 h.
The same measure, in the same setting: as for `CC(C)[C@@H]1NC(=O)[C@H](Cc2c[nH]c3ccccc23)NC(=O)[C@@H]2CCCN2C(=O)[C@@H]2CSCCC(=O)N3CN(CN(C3)C(=O)CCSC[C@H](N)C(=O)N[C@@H](CO)C(=O)N[C@@H](Cc3ccccc3)C(=O)N3CCC[C@H]3C(=O)N[C@@H](CCCCNC(=N)N)C(=O)N2)C(=O)CCSC[C@@H](C(=O)N[C@@H](C)C(N)=O)NC(=O)CNC(=O)[C@H](CCC(=O)O)NC1=O` [Peptide 71] (HELM PEPTIDE1{C.S.F.P.[N=C(N)NCCCC[C@H](N[*:1])C(=O)[*:2]].C.P.W.V.E.G.C.A.[am]}|CHEM1{[O=C(CC[*:1])N1CN(C(=O)CC[*:2])CN(C(=O)CC[*:3])C1]}$PEPTIDE1,CHEM1,1:R3-1:R1|PEPTIDE1,CHEM1,6:R3-1:R2|PEPTIDE1,CHEM1,12:R3-1:R3$$$V2.0), the figure is 5.7 h.
Take `C[C@H](N)C(=O)N[C@H]1CSCCC(=O)N2CN3CN(C2)C(=O)CCSC[C@H](NC(=O)CNC(=O)[C@H](Cc2ccccc2)NC(=O)[C@H]([C@@H](C)O)NC(=O)[C@H](CCCNC(=N)N)NC1=O)C(=O)N[C@@H](Cc1c[nH]c2ccccc12)C(=O)N[C@@H](Cc1c[nH]c2ccccc12)C(=O)N[C@@H](CCC(=O)O)C(=O)NCC(=O)N[C@H](C(=O)N[C@@H](C)C(N)=O)CSCCC3=O` [Peptide 5]: in data set [2], the “IC50 (nM) by fluorescence polarisation with Bocillin FL as tracer, Geometric mean (Lower 95% CI of geo. Mean; Upper 95% CI of geo. Mean, n=number of values)” value is given as “showed binding to EcPBP3” and the half-maximal inhibitory concentration (IC50) stood at 1550 nM. The Kd in data set [3] came to 369 nM. In addition, the “MIC E. coli GKCW102 (EcPore)” value in data set [4] is given as “limited activity”.
`CC(=O)N[C@H]1CSCCC(=O)N2CN3CN(C2)C(=O)CCSC[C@H](NC(=O)[C@H](CCCCNC(=N)N)NC(=O)[C@@H]2CCCN2C(=O)[C@H](Cc2ccccc2)NC(=O)[C@H](CO)NC1=O)C(=O)N1CCC[C@H]1C(=O)N[C@@H](Cc1c[nH]c2ccccc12)C(=O)N[C@@H](C(C)C)C(=O)N[C@@H](CCC(=O)O)C(=O)NCC(=O)N[C@H](C(=O)N[C@@H](C)C(N)=O)CSCCC3=O` [Peptide 74] (HELM PEPTIDE1{[ac].C.S.F.P.[N=C(N)NCCCC[C@H](N[*:1])C(=O)[*:2]].C.P.W.V.E.G.C.A.[am]}|CHEM1{[O=C(CC[*:1])N1CN(C(=O)CC[*:2])CN(C(=O)CC[*:3])C1]}$PEPTIDE1,CHEM1,2:R3-1:R1|PEPTIDE1,CHEM1,7:R3-1:R2|PEPTIDE1,CHEM1,13:R3-1:R3$$$V2.0): the half-life at 5 μM in data set [1] is 17.7 h.
As to `CC(C)C[C@@H]1NC(=O)[C@H](CCC(=O)O)NC(=O)[C@@H]2CCCN2C(=O)[C@@H]2CCCN2C(=O)[C@H](CC(C)C)NC(=O)CNC(=O)[C@@H]2CCCN2C(=O)[C@H](Cc2ccc(O)cc2)NC(=O)[C@@H](NC(=O)[C@H](C)N)CSCCC(=O)N2CN3CN(C2)C(=O)CCSC[C@H](NC1=O)C(=O)N[C@@H](CO)C(=O)N1CCC[C@H]1C(=O)N[C@@H](CO)C(=O)N[C@@H](Cc1ccccc1)C(=O)N[C@H](C(=O)N[C@@H](C)C(N)=O)CSCCC3=O` [Peptide 10] (HELM PEPTIDE1{A.C.Y.P.G.L.P.P.E.L.C.S.P.S.F.C.A.[am]}|CHEM1{[O=C(CC[*:1])N1CN(C(=O)CC[*:2])CN(C(=O)CC[*:3])C1]}$PEPTIDE1,CHEM1,2:R3-1:R1|PEPTIDE1,CHEM1,11:R3-1:R2|PEPTIDE1,CHEM1,16:R3-1:R3$$$V2.0), the IC50 in data set [2] was above 100000 nM.
As for `C[C@H](N)C(=O)N[C@H]1CSCCC(=O)N2CN3CN(C2)C(=O)CCSC[C@H](NC(=O)[C@H](CCCCN)NC(=O)[C@@H]2CCCN2C(=O)[C@H](Cc2ccccc2)NC(=O)[C@H](CO)NC1=O)C(=O)N1CCC[C@H]1C(=O)N[C@@H](Cc1c[nH]c2ccccc12)C(=O)N[C@H](C)C(=O)N[C@@H](CCC(=O)O)C(=O)NCC(=O)N[C@H](C(=O)N[C@@H](C)C(N)=O)CSCCC3=O` [Peptide 69] (HELM PEPTIDE1{A.C.S.F.P.K.C.P.W.[dA].E.G.C.A.[am]}|CHEM1{[O=C(CC[*:1])N1CN(C(=O)CC[*:2])CN(C(=O)CC[*:3])C1]}$PEPTIDE1,CHEM1,2:R3-1:R1|PEPTIDE1,CHEM1,7:R3-1:R2|PEPTIDE1,CHEM1,13:R3-1:R3$$$V2.0), the Kd in data set [3] was above 2500 nM. Moreover, in data set [4], the “MIC E. coli GKCW102 (EcPore)” value was above 16 µg/mL.
As for `CC(C)C[C@@H]1NC(=O)[C@H](Cc2ccccc2)NC(=O)[C@H](CCC(=O)O)NC(=O)[C@H]([C@@H](C)O)NC(=O)[C@H](C)NC(=O)[C@@H](NC(=O)[C@H](C)N)CSCCC(=O)N2CN3CN(C2)C(=O)CCSC[C@H](NC(=O)[C@H](CC(C)C)NC(=O)[C@@H]2CCCN2C(=O)[C@H](Cc2ccc(O)cc2)NC1=O)C(=O)N[C@@H](Cc1c[nH]c2ccccc12)C(=O)N[C@@H](Cc1c[nH]c2ccccc12)C(=O)N[C@@H](CC(=O)O)C(=O)N[C@@H](CC(N)=O)C(=O)N[C@H](C(=O)N[C@@H](C)C(N)=O)CSCCC3=O` [Peptide 7] (HELM PEPTIDE1{A.C.A.T.E.F.L.Y.P.L.C.W.W.D.N.C.A.[am]}|CHEM1{[O=C(CC[*:1])N1CN(C(=O)CC[*:2])CN(C(=O)CC[*:3])C1]}$PEPTIDE1,CHEM1,2:R3-1:R1|PEPTIDE1,CHEM1,11:R3-1:R2|PEPTIDE1,CHEM1,16:R3-1:R3$$$V2.0), the IC50 in data set [2] is above 100000 nM.
Turning to `CC(C)C[C@@H]1NC(=O)[C@H](Cc2c[nH]c3ccccc23)NC(=O)[C@H](CCC(=O)O)NC(=O)[C@@H]2CCCN2C(=O)[C@H]([C@@H](C)O)NC(=O)[C@H](CCCCN)NC(=O)[C@H](C)NC(=O)[C@@H](NC(=O)[C@H](C)N)CSCCC(=O)N2CN3CN(C2)C(=O)CCSC[C@@H](C(=O)N[C@@H](C)C(N)=O)NC(=O)[C@H](Cc2ccc(O)cc2)NC(=O)[C@H](C)NC(=O)[C@H](CC(N)=O)NC(=O)[C@H](Cc2ccccc2)NC(=O)CNC(=O)[C@H](CSCCC3=O)NC1=O` [Peptide 3] (HELM PEPTIDE1{A.C.A.K.T.P.E.W.L.C.G.F.N.A.Y.C.A.[am]}|CHEM1{[O=C(CC[*:1])N1CN(C(=O)CC[*:2])CN(C(=O)CC[*:3])C1]}$PEPTIDE1,CHEM1,2:R3-1:R1|PEPTIDE1,CHEM1,10:R3-1:R2|PEPTIDE1,CHEM1,16:R3-1:R3$$$V2.0), the IC50 in data set [2] is above 100000 nM.
With `CC(C)C[C@@H]1NC(=O)[C@@H]2CSCCC(=O)N3CN(CN(C3)C(=O)CCSC[C@@H](C(=O)N[C@@H](C)C(N)=O)NC(=O)[C@H](Cc3c[nH]c4ccccc34)NC(=O)[C@H](CC(=O)O)NC(=O)[C@H](CC(N)=O)NC(=O)[C@H](CCCCN)NC(=O)[C@H](C)NC1=O)C(=O)CCSC[C@H](NC(=O)[C@H](C)N)C(=O)N[C@@H](C)C(=O)N[C@@H](C)C(=O)N[C@@H](CC(=O)O)C(=O)N[C@@H](CCCNC(=N)N)C(=O)N[C@@H](CC(C)C)C(=O)N[C@@H](Cc1c[nH]c3ccccc13)C(=O)N2` [Peptide 1] (HELM PEPTIDE1{A.C.A.A.D.R.L.W.C.L.A.K.N.D.W.C.A.[am]}|CHEM1{[O=C(CC[*:1])N1CN(C(=O)CC[*:2])CN(C(=O)CC[*:3])C1]}$PEPTIDE1,CHEM1,2:R3-1:R1|PEPTIDE1,CHEM1,9:R3-1:R2|PEPTIDE1,CHEM1,16:R3-1:R3$$$V2.0), the IC50 in data set [2] was above 100000 nM.
